Type in all cases: cell-based
Data set [1] relates to HT1080 cells. Put plainly: RPA foci by immunofluorescence in HT1080 cells. On the procedure: Topotecan and aphidicolin were used in this study. For experiments where they were used to cause replication stress and DNA damage, cells were treated with topotecan 2 μg/mL for either 1 hour or 24 hours, or aphidicolin 1 μM for 20 hours. For replication fork stalling induction in the PCNA colocalisation experiments, cells were treated with aphidicolin 0.4 μM for 6-8 hours. Topotecan and aphidicolin were dissolved in DMSO. DMSO was used as a control.
Cells were transfected using Lipofectamine RNAiMAX transfection reagent (ThermoFisher Scientific) with an siRNA concentration of […]. For transfection in a 75 cm^2flask, 3 mL reduced serum medium Opti-MEM (Gibco) was combined with 15 μL of 20 μM siRNA, mixed gently to cover the surface area of the flask and incubated at room temperature for 5 minutes. 30 μL of Lipofectamine RNAiMAX transfection reagent was then added to the mixture, and mixed and incubated for a further 15 minutes at room temperature. Meanwhile, cells to be transfected were trypsinised, resuspended in DMEM supplemented with 10% FCS, and counted using a Beckman Coulter cell counter. 0.8-1×10^6 cells in DMEM supplemented with 10% FCS were directly pipetted onto the transfection mixture in the flask, and shaken gently to mix. Additional DMEM supplemented with 10% FCS was added to the flask up to a total volume of 15 mL. Cells were harvested 72 hours post-transfection for knockdown validation and subsequent experiments.
Cells cultured on coverslips were fixed in 2% paraformaldehyde in PBS at room temperature for 10 minutes. Cells fixed on coverslips were rinsed with deionised water, and then permeabilised using KCM buffer (120 mM potassium chloride, 20 mM NaCl, 10 mM Tris, pH 7.5, 0.1% Triton X-100) at room temperature for 10 minutes. Coverslips were blocked with antibody diluent buffer (ABDIL—20 mM Tris-Cl, pH 7.5, 2% BSA, 0.2% fish gelatine, 150 mM NaCl, 0.1% Triton X-100, 0.1% sodium azide) containing 100 μg/mL RNase A at room temperature for one hour. […] Quantitated analysis was conducted by automation with CellProfiler (Broad Institute).

The test system of a further data set is ATR-CHK1 pathway. Kind of data set: Western blot of ATR downstream effectors (p-CHK1 S345, p-RPA2 S33, pCHK2). To be noted: U-2 OS. On the procedure: Protein was extracted from 10^6 cells per sample by vigorous pipetting and incubation at room temperature for 30 minutes in 100 μL of EDTA-free 4× LDS buffer (106 mM Tris-Cl, 141 mM Tris-Base, 40% Glycerol, 2% LDS, 0.075% SERVA Blue G50) supplemented with 2.5% Benzonase® nuclease 25 U/μL (Novagen, Merck Millipore) and 2% beta-mercaptoethanol (Sigma). Following protein extraction, all samples were denatured at 90° C. for 15 minutes before resolving on NuPAGE® Novex® 4-12% Bis-Tris Mini Gels (Invitrogen) with 1×10^5 cells (10 μL) loaded per lane in NuPAGE® MES SDS running buffer (Invitrogen) at 200 V for 50 minutes. Gels were transferred onto a PVDF membrane (Immobilon-P, Millipore) in transfer buffer (190 mM glycine, 25 mM Tris and 10% methanol) at 100 V for 60 minutes. Membranes were stained with Ponceau-S for 30 minutes, de-stained then blocked for 1 hour at room temperature in 5% skim milk dissolved in PBS with 0.1% Tween-20 (PBST) or TBS with 0.1% Tween-20 (TBST) for phosphorylated proteins. Membranes were cut into appropriate segments based on the size markers, with each segment incubated with antibodies for proteins of interest diluted in 0.5% skim milk in PBST/TBST or 5% BSA overnight at 4° C. (Refer to Table 4 for the list of antibodies). Blots were then washed for 3×5 minutes in PBST/TBST followed by incubation for 1 hour at room temperature with appropriate secondary antibodies (See Table 5) diluted 1:5000 in 0.5% skim milk or 5% BSA in PBST/TBST. Blots were washed for 3×5 minutes in PBST/TBST before incubation with SuperSignal West Pico Chemiluminescent Substrate (ThermoFisher Scientific) for 5 minutes at room temperature. Blots were then exposed to a Luminescent Image Analyser (LAS-4000, Fujifilm).
To investigate the precise function of ZNF827 in the ATR pathway, the effect of ZNF827 depletion on the downstream effectors of ATR was examined. To activate ATR, U-2 OS cells were treated with DNA damage and replication stress inducing agents topotecan 2 μg/mL for 24 hours or aphidicolin 1 μM for 20 hours. […] Phosphorylation of CHK2 was not affected by ZNF827 depletion, further supporting that the role of ZNF827 in DNA damage and repair is independent of ATM (FIG. 6d).
A general note: Immunoblotting shows a protein as a band on a membrane.

Data set [2] has as its system HT1080 cells. Kind of data set: Cell cycle analysis by flow cytometry (propidium iodide). On the procedure:
For cell cycle analysis, cells were trypsinised, counted and collected by centrifugation at 1000 rpm for 5 minutes. 1×10^6 cells were resuspended in 0.5 mL PBS, then fixed in 5 mL of ice-cold 70% ethanol drop by drop whilst being gently vortexed. The cells were incubated on ice for 30 minutes then stored at −20° C. for 2-7 days until propidium iodide staining. Prior to propidium iodide (Sigma) staining, the ethanol fixed cells were centrifuged at 300×g for 6 minutes to remove ethanol, washed once with PBS, and resuspended in 0.5 mL PBS per 1×10^6 cells. The fixed cells were treated with 0.5 mg of RNase (Sigma) and 25 μg of propidium iodide at 37° C. for 30 minutes, and then allowed to return to room temperature in the dark for 10 minutes. Labelled cells were analysed using the BD FACSCanto Flow Cytometer (BD Biosciences) containing a blue air cooled 488 nm argon laser to excite propidium iodide. Between 10 000-15 000 events were collected at an approximate flow rate of 200 events/second. The forward scatter (FSC, size) and side scatter (SSC, internal granularity) of each cell was recorded. To discriminate and eliminate cell debris and doublets, the pulse area (FL2-A) was plotted against the pulse width (FL2-W). Doublets identified as cells with 4N DNA content and increasing pulse width were eliminated. A histogram displaying the cell counts against the FL2-A was used to calculate the percentage of cells in each cell cycle phase, as well as the percentage of non-viable cells. Data analysis was conducted using BD FACS Diva software (BD Bioscience).
For orientation: In flow cytometry, cells or beads pass a laser one at a time.

[3] abbreviates: agent alone (topotecan 2 μg/mL 24 hr, or 72 hr siRNA knockdown in unchallenged cells).
[4] abbreviates: agent alone (topotecan 2 μg/mL 24 hours, aphidicolin 1 μM 20 hours, or siRNA knockdown in unchallenged cells).
Setting [5] is: agent alone (topotecan 2 μg/mL 1 hr, or 72 hr siRNA knockdown in unchallenged cells).

As for `CC[C@@]1(O)C(=O)OCc2c1cc1n(c2=O)Cc2cc3c(CN(C)C)c(O)ccc3nc2-1` [topotecan], in the data set on HT1080 cells [1] (setting [3]), the “total nuclear RPA foci” value is reported as “RPA foci only became visible upon topotecan treatment”. Moreover, in the data set with ATR-CHK1 pathway (setting [4]), the “phosphorylation of CHK1 S345” value is on record as “became phosphorylated at S345”. In addition, the “phosphorylation of RPA S33” value in the data set with ATR-CHK1 pathway (topotecan 2 μg/mL 24 hours) is “phosphorylated at S33”. Moreover, the cell cycle profile entry in the data set on HT1080 cells [2] (setting [5]) is “distinct G2/M arrest”.

As for “siZNF827: Stealth RNAi siRNA ZNF827HSS135819 duplex oligoribonucleotides (Invitrogen), SEQ ID NO: 12 and 13 (chain 1 GGGCAGUCUUCUGGCUGAGAAAUCA; chain 2 UGAUUUCUCAGCCAGAAGACUGCCC; listed as RNA, further chemistry not given here)”, the “total nuclear RPA foci” value is on record as “significantly greater increase in overall nuclear RPA foci” in the data set on HT1080 cells [1] (72 hr siRNA knockdown of ZNF827 in topotecan-treated cells (2 μg/mL, 24 hr)) and “did not change the total number of nuclear RPA foci” in the data set with HT1080 cells [1] (setting [3]). The “phosphorylation of CHK1 S345” value in the data set with ATR-CHK1 pathway (72 hr siRNA knockdown in topotecan- or aphidicolin-treated cells) was “markedly suppressed”; with ATR-CHK1 pathway (setting [4]), “reduced baseline phosphorylation of CHK1 S345”. For the same molecule, the “phosphorylation of RPA S33” value in the data set with ATR-CHK1 pathway (72 hr siRNA knockdown in topotecan-treated cells) was “markedly suppressed”. Moreover, the “phosphorylation of CHK2” value in the data set on ATR-CHK1 pathway (72 hr siRNA knockdown, topotecan 2 μg/mL 24 hr or DMSO) is given as “not affected”. In addition, the results for the cell cycle profile result in the data set on HT1080 cells [2] (72 hr siRNA knockdown in conjunction with topotecan 2 μg/mL 1 hr) and in the data set with HT1080 cells [2] (setting [5]) were “conspicuous G1 arrest while reducing the G2/M arrest” and “subtle increase in S phase cells accompanied by a reduction in G2/M cells”, respectively.

The values above are taken from patent publication US20220305003A1, “METHODS OF TREATING CANCER WITH AN INHIBITOR OF ZNF827” (CHILDREN'S MEDICAL RESEARCH INSTITUTE, priority 2019, published 2022).
